Test results as given in EP0183174A2, “Substituted phenoxy urea, processes for its preparation and herbicide containing it as active ingredient” (KUMIAI CHEMICAL INDUSTRY CO., LTD., priority 1984, dated 1986).

How the values were obtained:
barnyardgrass = assay: Test Example 2: herbicidal test for selectivity between rice and barnyardgrass (herbicidal effects); type: in vivo, Echinochloa crus-galli L.; conditions: barnyardgrass of 2-leaf stage, thirty days after application
Method: (§1) Into each 1/5000 are Wager pot, paddy soil was filled and puddled, then seeds of barnyardgrass were sown and grown until they reached 2-leaf stage. The barnyardgrass of 2-leaf stage was thinned out to adjust the number of barnyardgrass to fifteen per pot, and rice seedlings of 2-leaf stage were transplanted in the same pot. […] Thereafter, they were grown in a green house, and thirty days after the application, the herbicidal effects and phytotoxicity were evaluated in accordance with the standards as identified in Table 5.

Paddy rice = assay: Test Example 2: herbicidal test for selectivity between rice and barnyardgrass (phytotoxicity); type: in vivo; conditions: transplanted rice seedlings of 2-leaf stage, thirty days after application
Method: as §1

crabgrass = assay: Test Example 3: herbicidal test by upland soil treatment; type: in vivo, Digitaria sanquinalis L.; design: key: 5: Withered; 4.5: Herbicidal effect (or phytotoxicity) in a range of 90 to 99%; 4: Herbicidal effect (or phytotoxicity) in a range of 80 to 89%; 3.5: Herbicidal effect (or phytotoxicity) in a range of 70 to 79%; 3: Herbicidal effect (or phytotoxicity) in a range of 60 to 69%; 2.5: Herbicidal effect (or phytotoxicity) in a range of 50 to 59%; 2: Herbicidal effect (or phytotoxicity) in a range of 40 to 49%; 1.5: Herbicidal effect (or phytotoxicity) in a range of 30 to 39%; 1: Herbicidal effect (or phytotoxicity) in a range of 20 to 29%; 0.5: Herbicidal effect (or phytotoxicity) in a range of 1 to 19%; 0: No herbicidal effect (or no phytotoxicity); conditions: evaluated twenty days after application
From the text: (§2) Into each plastic pot of 600 cm^2, upland soil was filled, then seeds of barnyardgrass, crabgrass, green foxtail, redroot pigweed, rice flatsedge, rice, wheat, maize, soybean, cotton and sugar beet were sown, and they were covered with soil. A predetermined amount of the wettable powder prepared from the test compound in accordance with Formulation Example 3 and diluted with water, was uniformly applied to the surface of the soil at an application rate of 1000 liter/hectare by means of a small size spray. They were grown in a greenhouse, and twenty days after the application, the herbicidal effects and phytotoxicity were evaluated in accordance with the standards as identified in Table 5.

green foxtail = assay: as above; type: in vivo, Setaria viridis L.; design: key: 5: Withered; 4.5: Herbicidal effect (or phytotoxicity) in a range of 90 to 99%; 4: Herbicidal effect (or phytotoxicity) in a range of 80 to 89%; 3.5: Herbicidal effect (or phytotoxicity) in a range of 70 to 79%; 3: Herbicidal effect (or phytotoxicity) in a range of 60 to 69%; 2.5: Herbicidal effect (or phytotoxicity) in a range of 50 to 59%; 2: Herbicidal effect (or phytotoxicity) in a range of 40 to 49%; 1.5: Herbicidal effect (or phytotoxicity) in a range of 30 to 39%; 1: Herbicidal effect (or phytotoxicity) in a range of 20 to 29%; 0.5: Herbicidal effect (or phytotoxicity) in a range of 1 to 19%; 0: No herbicidal effect (or no phytotoxicity); conditions: evaluated twenty days after application
From the text: as §2

cotton = assay: Test Example 3: herbicidal test by upland soil treatment (phytotoxicity); type: in vivo; design: key: 5: Withered; 4.5: Herbicidal effect (or phytotoxicity) in a range of 90 to 99%; 4: Herbicidal effect (or phytotoxicity) in a range of 80 to 89%; 3.5: Herbicidal effect (or phytotoxicity) in a range of 70 to 79%; 3: Herbicidal effect (or phytotoxicity) in a range of 60 to 69%; 2.5: Herbicidal effect (or phytotoxicity) in a range of 50 to 59%; 2: Herbicidal effect (or phytotoxicity) in a range of 40 to 49%; 1.5: Herbicidal effect (or phytotoxicity) in a range of 30 to 39%; 1: Herbicidal effect (or phytotoxicity) in a range of 20 to 29%; 0.5: Herbicidal effect (or phytotoxicity) in a range of 1 to 19%; 0: No herbicidal effect (or no phytotoxicity); conditions: evaluated twenty days after application
From the text: as §2

soybean = assay: as above; type: in vivo; design: key: 5: Withered; 4.5: Herbicidal effect (or phytotoxicity) in a range of 90 to 99%; 4: Herbicidal effect (or phytotoxicity) in a range of 80 to 89%; 3.5: Herbicidal effect (or phytotoxicity) in a range of 70 to 79%; 3: Herbicidal effect (or phytotoxicity) in a range of 60 to 69%; 2.5: Herbicidal effect (or phytotoxicity) in a range of 50 to 59%; 2: Herbicidal effect (or phytotoxicity) in a range of 40 to 49%; 1.5: Herbicidal effect (or phytotoxicity) in a range of 30 to 39%; 1: Herbicidal effect (or phytotoxicity) in a range of 20 to 29%; 0.5: Herbicidal effect (or phytotoxicity) in a range of 1 to 19%; 0: No herbicidal effect (or no phytotoxicity); conditions: evaluated twenty days after application
From the text: as §2

wheat = assay: as above; type: in vivo; design: key: 5: Withered; 4.5: Herbicidal effect (or phytotoxicity) in a range of 90 to 99%; 4: Herbicidal effect (or phytotoxicity) in a range of 80 to 89%; 3.5: Herbicidal effect (or phytotoxicity) in a range of 70 to 79%; 3: Herbicidal effect (or phytotoxicity) in a range of 60 to 69%; 2.5: Herbicidal effect (or phytotoxicity) in a range of 50 to 59%; 2: Herbicidal effect (or phytotoxicity) in a range of 40 to 49%; 1.5: Herbicidal effect (or phytotoxicity) in a range of 30 to 39%; 1: Herbicidal effect (or phytotoxicity) in a range of 20 to 29%; 0.5: Herbicidal effect (or phytotoxicity) in a range of 1 to 19%; 0: No herbicidal effect (or no phytotoxicity); conditions: evaluated twenty days after application
From the text: as §2

sugar beet = assay: as above; type: in vivo; conditions: evaluated twenty days after application
From the text: as §2

CN(C)C(=O)NOc1cc(Cl)ccc1Cl [Compound No. 1, 3-(2,5-Dichlorophenoxy)-1,1-dimethyl urea]
Herbicidal effects Barnyard grass (barnyardgrass; Dose 0.25 kg/Ha): 5
Herbicidal effects Barnyard grass (barnyardgrass; Dose 0.5 kg/Ha): 5
Herbicidal effects Barnyard grass (barnyardgrass; Dose 1 kg/Ha): 5
Phytotoxicity Paddy rice (Paddy rice; Dose 0.25 kg/Ha): 0
Phytotoxicity Paddy rice (Paddy rice; Dose 0.5 kg/Ha): 0
Phytotoxicity Paddy rice (Paddy rice; Dose 1 kg/Ha): 1 (Herbicidal effect (or phytotoxicity) in a range of 20 to 29%)
Herbicidal effects Crab-grass (crabgrass; Dose 1 kg/HA): 5
Herbicidal effects Crab-grass (crabgrass; Dose 4 kg/HA): 5
Herbicidal effects Green foxtail (green foxtail; Dose 1 kg/HA): 5
Herbicidal effects Green foxtail (green foxtail; Dose 4 kg/HA): 5
Phytotoxicity Cotton (cotton; Dose 1 kg/HA): 0
Phytotoxicity Cotton (cotton; Dose 4 kg/HA): 0
Phytotoxicity Soybean (soybean; Dose 1 kg/HA): 0
Phytotoxicity Soybean (soybean; Dose 4 kg/HA): 0
Phytotoxicity Wheat (wheat; Dose 1 kg/HA): 0
Phytotoxicity Wheat (wheat; Dose 4 kg/HA): 0
Phytotoxicity Sugar beet (sugar beet; Dose 1 kg/HA): 2 (Herbicidal effect (or phytotoxicity) in a range of 40 to 49%)
Phytotoxicity Sugar beet (sugar beet; Dose 4 kg/HA): 3 (Herbicidal effect (or phytotoxicity) in a range of 60 to 69%)

CC(C)N(C)C(=O)NOc1cc(Cl)cc(Cl)c1 [Compound No. 186, 3-(3,5-Dichlorophenoxy)-1-isopropyl-1-methyl urea trichloroacetate]
Herbicidal effects Barnyard grass (barnyardgrass; Dose 0.25 kg/Ha): 5
Herbicidal effects Barnyard grass (barnyardgrass; Dose 0.5 kg/Ha): 5
Phytotoxicity Paddy rice (Paddy rice; Dose 0.25 kg/Ha): 0
Phytotoxicity Paddy rice (Paddy rice; Dose 0.5 kg/Ha): 1 (Herbicidal effect (or phytotoxicity) in a range of 20 to 29%)
Herbicidal effects Crab-grass (crabgrass; Dose 1 kg/HA): 5
Herbicidal effects Crab-grass (crabgrass; Dose 4 kg/HA): 5

CON(C)C(=O)NOc1cc(Cl)ccc1Cl [Compound No. 242, 3-(2,5-Dichlorophenoxy)-1-methoxy-1-methyl urea]
Herbicidal effects Crab-grass (crabgrass; Dose 1 kg/HA): 5
Herbicidal effects Crab-grass (crabgrass; Dose 4 kg/HA): 5

COCCNC(=O)NOc1cc(Cl)ccc1Cl [Compound No. 243]
Herbicidal effects Crab-grass (crabgrass; Dose 1 kg/HA): 5
Herbicidal effects Crab-grass (crabgrass; Dose 4 kg/HA): 5
